These are literature values, as cited in article PMC3738054 (Journal of immunology (Baltimore, Md. : 1950), 2013).

This data set relates to cerebral malaria. The note with it: oral inhibitor, murine model of cerebral malaria.

Turning to `c1cc(-c2nc3ccc(OCCCN4CCCC4)cc3o2)ccc1OCCCN1CCCC1` [E6446], the “efficacy in mitigating inflammatory injury” value was “has shown efficacy”.
